Data on four compounds can be found in patent publication EP0126849A1, “Pharmacologically active N-amino hydantoin derivatives, their synthesis and intermediates” (THE WELLCOME FOUNDATION LIMITED, priority 1983, dated 1984).

Values after ≈ are worked out from the molar mass of the structure shown.

In series [1] the test system is rabbit platelet aggregation. Nature of the series: Ex vivo rabbit platelet aggregation after i.v. infusion of the hydantoin (ADP 20 µM). It is filed as in vivo, rabbits. As to conditions: i.v. infusion for 15 min, blood sample 10 min after start of infusion. As to the method:
Male rabbits (2-2.5 kg body weight) were anaesthetized with sodium pentobarbitone (30 mg/kg, i.v. followed by maintenance doses of 3mg/kg) and systemic arterial blood pressure (BP) was recorded from a cannula filled with
heparinized saline (5 units/ml) in a carotid artery; no heparin was administered to the animal. Hydantoins were administered via a cannula in a femoral vein. Blood samples (1.5 ml) were slowly collected into a plastic syringe containing tri-sodium citrate (3.18%, 0.15 ml) from a cannula inserted into a femoral artery, shaken gently and transferred to an Eppendorf plastic tube and spun in a modified Eppendorf centrifuge for 2 sec (Model 5412, maximum centrifugal force 10,000 x g). The PRP was collected and a 0.35 ml aliquot was transferred to the aggregometer and incubated at 37°C for 1 minute prior to addition of sufficient ADP (20 µM) to produce near-maximal aggregation. The time-interval between removal of blood samples and the transference of the PRP to the aggregometer was less than 1.5 min.
Blood samples were removed at 10 min. intervals once the BP of the rabbit had reached steady resting levels, 10-20 min. following the preparative surgical procedures. After three control blood samples had been prepared and the control aggregation of the platelets measured, the hydantoin was infused intravenously for 15 min from a Braun slow-infusion apparatus. Blood samples were collected 10 min after the start of the infusion. Two further 10 min. samples post-infusion were collected prior to commencing further infusions.
The following results list values of ED50 and change in blood pressure. For comparison, also given are the results obtained upon administration of PGIZ and Compound X.

Series [2] has as its system systemic arterial blood pressure (BP). Nature of the series: Concurrent change in systemic arterial blood pressure in anaesthetized rabbits. It is filed as in vivo. As to conditions: for Δ BP: anaesthetized rabbit, i.v. infusion, at the ED50 dose; for blood pressure depressant activity: at the ED50 doses, rabbit, stated in words. As to the method:
Male rabbits (2-2.5 kg body weight) were anaesthetized with sodium pentobarbitone (30 mg/kg, i.v. followed by maintenance doses of 3mg/kg) and systemic arterial blood pressure (BP) was recorded from a cannula filled with heparinized saline (5 units/ml) in a carotid artery; no heparin was administered to the animal. Hydantoins were administered via a cannula in a femoral vein. Blood samples (1.5 ml) were slowly collected into a plastic syringe containing tri-sodium citrate (3.18%, 0.15 ml) from a cannula inserted into a femoral artery, shaken gently and transferred to an Eppendorf plastic tube and spun in a modified Eppendorf centrifuge for 2 sec (Model 5412, maximum centrifugal force 10,000 x g). The PRP was collected and a 0.35 ml aliquot was transferred to the aggregometer and incubated at 37°C for 1 minute prior to addition of sufficient ADP (20 µM) to produce near-maximal aggregation. The time-interval between removal of blood samples and the transference of the PRP to the aggregometer was less than 1.5 min. […] After three control blood samples had been prepared and the control aggregation of the platelets measured, the hydantoin was infused intravenously for 15 min from a Braun slow-infusion apparatus. Blood samples were collected 10 min after the start of the infusion. Two further 10 min. samples post-infusion were collected prior to commencing further infusions. The following results list values of ED50 and change in blood pressure. For comparison, also given are the results obtained upon administration of PGIZ and Compound X.

Series [3] concerns mean systemic arterial blood pressure (BP). The experiment in a line: Cardiovascular actions in rats: fall in blood pressure and duration of the hypotensive effect. Conditions: for Fall in BP Relative Potency PGE1 / Fall in BP Relative Potency PGI2: anaesthetized rat, i.v. injection; for Fall in BP Relative Potency PGE1: potency ratio against PGE1; for Duration t½: time from peak hypotensive response to recovery to half its peak, rat i.v.; for Fall in BP Relative Potency PGI2: potency ratio against PGI2. It is filed as in vivo, male Wistar rats. As to the method: Anaesthesia was induced in male Wistar rats (250-300 g body weight) with sodium pentobarbitone (30 mg kg^-1, i.v.) and supplemented (3 mg kg^-1) when required. Arterial pressure was recorded from a cannulated femoral artery and heart rate derived from the arterial pulse. Rectal temperature was maintained at 37°C by thermistor-controlled radiant heat. Each compound was injected into a femoral vein in a volume of 0.25 ml and flushed in with 0.2 ml of saline (0.9% w/v). Dose-response relationships for the fall in mean systemic arterial blood pressure (BP) with the hydantoins were constructed and compared to those obtained with PGI2 and PGE, in the same animal, and a potency ratio calculated. […] Figures for Compound X and PGI2 are listed for comparison.

Another series has as its system platelet aggregation. The experiment in a line: Inhibition of platelet aggregation in human platelet-rich plasma (Born-type aggregometer, ADP or other aggregating agent). It is filed as cell-based. As to conditions: for IC50: Homo sapiens, Platelet, 1 min, 1 min incubation at 37°C before aggregating agent, read-out: IC50; for IC50 / Potency relative to PGI2: human PRP; for Potency relative to PGI2: 1 min incubation, PGI2 = 1; for Increase on Incubation (min) 5: increase in potency after 5 min incubation in PRP; for Increase on Incubation (min) 10: increase in potency after 10 min incubation in PRP. On the procedure: Human blood was freshly collected into siliconized (Siloclad; Clay Adams) plastic (Sterilin Ltd.) vessels containing trisodium citrate (3.15%; 0.1 volume with 0.9 volume blood) and centrifuged (200 g for 15 min) at room temperature. The platelet-rich plasma (PRP) was withdrawn into plastic containers and kept at room temperature. Inhibition of […] prior to addition of sufficient adenosine diphosphate (ADP) or other aggregating agent to just cause a non-reversing control aggregation. Dose-inhibition curves were constructed for each compound and the ID50 (dose causing 50% inhibition) was calculated as the dose required to reduce the aggregation to 50% of its control amplitude. […] For comparison, also given are the results upon administration of 5-(6-carboxyhexyl)-1-(3-cyclohexyl-3-hydroxypropyl)hydantoin (Compound X) which is disclosed in UK Specification 1,595,694. -
In this and subsequent biological examples, where a compound number refers to a single diastereoisomer, a mixture of diastereoisomers is indicated by two compound numbers separated by /.

A further series deals with B.P. The experiment in a line: Cardiovascular studies in the dog: vasodepressor potency and duration. As to conditions: i.v. bolus. It is filed as in vivo, Dogs. On the procedure:
Dogs (10-15 kg body weight) were anaesthetized with chloralose (80 mg/kg i.v.) and maintained with subcutaneous injections of pentobarbitone (3 mg/kg). Drugs were administered via a femoral vein by bolus injection and B.P. was recorded from the right femoral artery. Results give vasodepressor potency and t1 2 duration. Figures for Compound X are provided for comparison.

In series [4] the test system is acid-ethanol induced gastric lesions. Nature of the series: Inhibition of acid-ethanol induced gastric lesions in rats (cytoprotection). In kind it is in vivo. As to conditions: rat, oral. As to the method:
The inhibition of acid-ethanol induced gastric lesions in rats (cytoprotection) was measured for various doses of orally administered hydantoin. Figures for compound X are given for comparison.

The mark [5] stands for this setting: Dose 1.25 ug kg^-1, duration of vasodepressor effect.

`CCCCC[C@H](O)/C=C/[C@@H]1[C@H]2C/C(=C/CCCC(=O)O)O[C@H]2C[C@H]1O` [PGI2, reference compound] showed an ED50 in series [1] of 0.2 µg/kg/min. Besides, the Δ BP in series [2] is given as -20 mmHg. Also, in series [3], the “Fall in BP Relative Potency PGE1” value was found to be 11.0 and the “Duration t½” value was determined as 0.3 min.

For the compound `O=C(O)CCCCCCC1C(=O)NC(=O)N1N=CC(O)C1CCCCC1` (centres unmarked) [Compound No. 3, 5-(6-carboxyhexyl)-1-(2-cyclohexyl-2-hydroxy-ethylideneamino)hydantoin], the ED50 in series [1] turned out to be 2.0 µg/kg/min. Besides, in series [2], the Δ BP came to 0 mmHg and the “blood pressure depressant activity” value is given as “no significant blood pressure depressant activity”. Also, in the series with platelet aggregation, the IC50 came to 16 ng/mL (≈ 43.5 nM), the “Potency relative to PGI2” value stood at 0.02, the “Increase on Incubation (min) 5” value is “x7” and the “Increase on Incubation (min) 10” value was “x20”. In addition, in series [3], the “Fall in BP Relative Potency PGE1” value stood at 0.324, the “Fall in BP Relative Potency PGI2” value worked out at 0.027 and the “Duration t½” value stood at 11.0 min.

Consider `O=C(O)CCCCCCC1C(=O)NC(=O)N1CCC(O)C1CCCCC1` (centres unmarked) [Compound X, 5-(6-carboxyhexyl)-1-(3-cyclohexyl-3-hydroxypropyl)hydantoin, reference compound], for which, in the series on B.P. (Dose 1.25 ug kg^-1), the “Δ BP” value is on record as -45 mm Hg. Further, in the series with B.P. (setting [5]), the t1/2 was 2.8 min. Also, in the series on B.P. (Dose 2.5 ug kg^-1), the “Δ BP” value is -56 mm Hg. This compound displayed a t1/2 in the series with B.P. (Dose 2.5 ug kg^-1, duration of vasodepressor effect) of 6.2 min. In series [4] (Dose 5 μg kg^-1), the “% inhibition” value is 46 ± 26%. Moreover, the “% inhibition” value in series [4] (Dose 10 μg kg^-1) amounted to 80 ± 9%. Also, in series [4] (Dose 25 μg kg^-1), the “% inhibition” value is on record as 89 ± 6%. This compound also gave an ED50 in series [1] of 3.3 µg/kg/min. Besides, the Δ BP in series [2] was -5 mmHg. Further, in the series with platelet aggregation, the concentration for half-maximal inhibition (IC50) came to 1.5 ng/mL (≈ 4.07 nM), the “Potency relative to PGI2” value stood at 0.21, the “Increase on Incubation (min) 5” value was “x2” and the “Increase on Incubation (min) 10” value is listed as “x3”. In series [3], the “Fall in BP Relative Potency PGE1” value is reported as 0.72, the “Fall in BP Relative Potency PGI2” value came out at 0.06 and the “Duration t½” value was determined as 4.0 min.

Regarding `O=C(O)CCCCCCC1C(=O)NC(=O)N1N=CC(O)C1CCCCC1` (single isomer, unassigned) [Compound No. 6, 5-(6-carboxyhe-xyl)-1-(2-cyclohexyl-2-hydroxyethylideneamino)hydantoin], in the series with B.P. (Dose 0.625 ug kg^-1), the “Δ BP” value was -54 mm Hg. Moreover, in the series with B.P. (Dose 0.625 ug kg^-1, duration of vasodepressor effect), the t1/2 was 60 min. The “Δ BP” value in the series with B.P. (Dose 1.25 ug kg^-1) is reported as -65 mm Hg. This compound gave a t1/2 in the series on B.P. (setting [5]) greater than 60 min. Also, the “% inhibition” value in series [4] (Dose 10 μg kg^-1) is 31 ± 20%. In series [4] (Dose 25 μg kg^-1), the “% inhibition” value is recorded as 50 ± 21%. Moreover, the “% inhibition” value in series [4] (Dose 50 μg kg^-1) is 69 ± 8%. Moreover, the 50% effective dose (ED50) in series [1] is 0.15 µg/kg/min. In addition, in series [2], the Δ BP came out at 0 mmHg and the “blood pressure depressant activity” value is “no significant blood pressure depressant activity”. For the same compound, in the series with platelet aggregation, the half-maximal inhibitory concentration (IC50) was 2 ng/mL (≈ 5.44 nM), the “Potency relative to PGI2” value turned out to be 0.30, the “Increase on Incubation (min) 5” value is “x5” and the “Increase on Incubation (min) 10” value is on record as “x20”. In series [3], the “Fall in BP Relative Potency PGE1” value is on record as 0.5, the “Fall in BP Relative Potency PGI2” value is 0.041 and the “Duration t½” value came to 17.0 min.
